Experimental findings from patent US8916681B2, “Compound, use and method” (Medical Research Council, priority 2007, dated 2014) are described below.

This assay concerns the target GPR54 (Homo sapiens, UniProt Q969F8). Put plainly: Inositol phosphate (IP) antagonism assay: inhibition of 10 nM kisspeptin-10 stimulation of IP in CHO/gpr-54 cells. The assay is classed as cell-based. To be noted: CHO cells, 10 nM kisspeptin-10; for IC50: unit inferred, given in M. Also noted: G. Vassart, Univ; Brussels. How it is done: Inositol-3-phoshate Antagonistic Assay—Cell monolayers had 0.5 mls HEPES modified DMEM supplemented with […] for 30 mins at 37° C. to block IP3 breakdown. Cells were then stimulated with 0.25 mls 10 nM Kisspeptin-10 plus 0.25 mls of 10 nM Kisspeptin-10 or analogues (10 pM-10 uM) diluted at 1:1000 in the above media for 1 hr at 37° C., then in 10 mM Formic acid at 4° C. for 1 hr to lyse cells. Lysate was then transferred to plastic tubes containing 0.5 mls Dowex resin to bind the radioactive IP3 and the resin was then washed with 1 ml H2O. The resin was then washed with 60 mM NH4 formate/5 mM Sodium tetraborate followed by 1M NH4 formate/0.1M Formic acid to release the bound radiation. Then 800 μls of the radioactive solution were transferred to scintillation vials containing 2.5 mls scintillation fluid and radioactivity counted on a Beta counter for 60 seconds.
Chinese hamster ovary (CHO) cells stably-expressing the human gpr-54 receptor (CHO/gpr-54) were obtained from Prof. G. Vassart, Univ. Brussels. The cells were maintained in Dulbecco's modified Eagle's medium (DMEM; Sigma) supplemented with 10% fetal calf serum, 2% glutamine and 1% penicillin (10,000 units/ml)/streptomycin ([…]) at 37° C. in a humidified 5% CO2 atmosphere.
Experiments were repeated 3-5 times. IP production was plotted as mean values±SEM and analyzed using a Student's t-Test ([…]).

Non-standard residues stand in square brackets, D forms with d. Residues, ends and D or L forms follow the SMILES beside them. A value given as a limit tells only on which side of the number the result lay.

Chain of GPR54 (Q969F8 whole entry): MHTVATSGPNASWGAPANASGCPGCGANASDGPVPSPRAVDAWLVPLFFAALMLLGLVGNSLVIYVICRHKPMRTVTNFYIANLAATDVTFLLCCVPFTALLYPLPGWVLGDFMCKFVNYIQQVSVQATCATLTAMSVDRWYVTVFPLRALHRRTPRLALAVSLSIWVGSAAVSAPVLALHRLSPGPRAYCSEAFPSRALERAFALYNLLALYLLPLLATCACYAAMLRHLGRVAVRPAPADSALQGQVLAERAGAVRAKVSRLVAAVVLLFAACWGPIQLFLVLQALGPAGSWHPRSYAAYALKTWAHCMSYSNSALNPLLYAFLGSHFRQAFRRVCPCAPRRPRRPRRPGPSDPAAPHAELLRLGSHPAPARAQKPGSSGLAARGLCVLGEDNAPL

`CC(=O)N[C@@H](CC(N)=O)C(=O)N[C@@H](CO)C(=O)N[C@@H](Cc1ccccc1)C(=O)NCC(=O)N[C@@H](CC(C)C)C(=O)N[C@@H](CCCNC(=N)N)C(=O)N[C@@H](Cc1ccccc1)C(N)=O` [Peptide 186] (Ac-NSFGLRF-NH2): the “Inhibition of IP stimulation by 10 nM Agonist: % Inhibition of Max” value (from here on “Inhibition … % Inhibition of Max”) stood at 70%.
Same read-out and setting: to `CC(C)C[C@H](NC(=O)CNC(=O)[C@H](Cc1ccccc1)NC(=O)[C@H](CO)NC(=O)[C@H](CC(N)=O)NC(=O)[C@H](Cc1c[nH]c2ccccc12)NC(=O)[C@H](CC(N)=O)NC(=O)[C@@H](N)Cc1ccc(O)cc1)C(=O)N[C@@H](CCCNC(=N)N)C(=O)N[C@@H](Cc1c[nH]c2ccccc12)C(N)=O` [Peptide 187] (H-YNWNSFGLRW-NH2) belongs 36%; to `CC(=O)N[C@@H](Cc1ccccc1)C(=O)NCC(=O)N[C@@H](CC(C)C)C(=O)N[C@@H](CCCNC(=N)N)C(=O)N[C@@H](Cc1ccccc1)C(N)=O` [Peptide 188] (Ac-FGLRF-NH2), 74%; to `CC(=O)N[C@@H](Cc1ccccc1)C(=O)NCC(=O)N[C@@H](CC(C)C)C(=O)N[C@@H](CCCNC(=N)N)C(=O)N[C@@H](Cc1c[nH]c2ccccc12)C(N)=O` [Peptide 189], 94%.
Usually IC50 stands for the midpoint of a concentration-inhibition curve. A higher IC50 goes with a need for much substance. `CC(=O)N[C@@H](Cc1ccccc1)C(=O)NCC(=O)N[C@H](Cc1ccccc1)C(=O)N[C@@H](CCCNC(=N)N)C(=O)N[C@@H](Cc1c[nH]c2ccccc12)C(N)=O` [Peptide 190] (Ac-FG[dF]RW-NH2): the “Inhibition … % Inhibition of Max” value amounted to 71% and the midpoint of inhibition, the IC50, lay at 10 nM.
Regarding `CC(=O)N[C@@H](Cc1ccccc1)C(=O)NCC(=O)N[C@H](CC(C)C)C(=O)N[C@@H](CCCNC(=N)N)C(=O)N[C@@H](Cc1c[nH]c2ccccc12)C(N)=O` [Peptide 191], the “Inhibition … % Inhibition of Max” value is recorded as 79%.
On to `CC(=O)N[C@@H](Cc1ccccc1)C(=O)NCC(=O)N[C@@H](CC(C)C)C(=O)N[C@H](CCCNC(=N)N)C(=O)N[C@@H](Cc1c[nH]c2ccccc12)C(N)=O` [Peptide 200], for which the “Inhibition … % Inhibition of Max” value is 63% and the IC50 amounted to 300 nM.
The matching figures for `CC(=O)N[C@@H](Cc1ccccc1)C(=O)NCC(=O)N[C@@H](C)C(=O)N[C@@H](CCCNC(=N)N)C(=O)N[C@@H](Cc1c[nH]c2ccccc12)C(N)=O` [Peptide 201] (Ac-FGARW-NH2): 69% and 7 nM.
Take `CC(=O)N[C@@H](C)C(=O)NCC(=O)N[C@@H](CC(C)C)C(=O)N[C@@H](CCCNC(=N)N)C(=O)N[C@@H](Cc1c[nH]c2ccccc12)C(N)=O` [Peptide 202] (Ac-AGLRW-NH2): the “Inhibition … % Inhibition of Max” value is 64% and the IC50 turned out to be 10 nM.
For the compound `CC(=O)N[C@H](Cc1ccccc1)C(=O)N[C@@H](Cc1c[nH]c2ccccc12)C(=O)N[C@@H](CC(C)C)C(=O)N[C@@H](CCCNC(=N)N)C(=O)N[C@@H](Cc1c[nH]c2ccccc12)C(N)=O` [Peptide 203] (Ac-[dF]WLRW-NH2), the “Inhibition … % Inhibition of Max” value turned out to be 71% and inhibition was half-maximal at 0.1 nM (IC50).
In the same order, the values of `CC(=O)N[C@@H](Cc1ccccc1)C(=O)NCC(=O)N[C@H](Cc1c[nH]c2ccccc12)C(=O)N[C@@H](CCCNC(=N)N)C(=O)N[C@@H](Cc1ccccc1)C(N)=O` [Peptide 206] (Ac-FG[dW]RF-NH2) are 68% and 10 nM.
On to `CC(C)C[C@H](NC(=O)CNC(=O)[C@H](Cc1ccccc1)NC(=O)CNC(=O)[C@H](CC(N)=O)NC(=O)[C@H](Cc1c[nH]c2ccccc12)NC(=O)[C@H](CC(N)=O)NC(=O)[C@@H](N)Cc1ccc(O)cc1)C(=O)N[C@@H](CCCNC(=N)N)C(=O)N[C@@H](Cc1ccccc1)C(N)=O` [Peptide 208] (H-YNWNGFGLRF-NH2), for which the “Inhibition … % Inhibition of Max” value amounted to 55% and half-maximal inhibition (IC50) required 1000 nM.
In the same order, the values of `CC(C)C[C@@H](NC(=O)CNC(=O)[C@H](Cc1ccccc1)NC(=O)CNC(=O)[C@H](CC(N)=O)NC(=O)[C@H](Cc1c[nH]c2ccccc12)NC(=O)[C@H](CC(N)=O)NC(=O)[C@@H](N)Cc1ccc(O)cc1)C(=O)N[C@@H](CCCNC(=N)N)C(=O)N[C@@H](Cc1ccccc1)C(N)=O` [Peptide 209] (H-YNWNGFG[dL]RF-NH2) are 61% and 100 nM.
The matching figures for `N=C(N)NCCC[C@H](NC(=O)[C@@H](Cc1c[nH]c2ccccc12)NC(=O)CNC(=O)[C@H](Cc1ccccc1)NC(=O)CNC(=O)[C@H](CC(N)=O)NC(=O)[C@H](Cc1c[nH]c2ccccc12)NC(=O)[C@H](CC(N)=O)NC(=O)[C@@H](N)Cc1ccc(O)cc1)C(=O)N[C@@H](Cc1ccccc1)C(N)=O` [Peptide 210] (H-YNWNGFG[dW]RF-NH2): 64% and under 0.1 nM.
The matching figures for `CC(C)C[C@H](NC(=O)CNC(=O)[C@@H](Cc1ccccc1)NC(=O)CNC(=O)[C@H](CC(N)=O)NC(=O)[C@H](Cc1c[nH]c2ccccc12)NC(=O)[C@H](CC(N)=O)NC(=O)[C@@H](N)Cc1ccc(O)cc1)C(=O)N[C@@H](CCCNC(=N)N)C(=O)N[C@@H](Cc1ccccc1)C(N)=O` [Peptide 211] (H-YNWNG[dF]GLRF-NH2): 73% and 1000 nM.
For the compound `CC(C)C[C@H](NC(=O)CNC(=O)[C@@H](Cc1c[nH]c2ccccc12)NC(=O)CNC(=O)[C@H](CC(N)=O)NC(=O)[C@H](Cc1c[nH]c2ccccc12)NC(=O)[C@H](CC(N)=O)NC(=O)[C@@H](N)Cc1ccc(O)cc1)C(=O)N[C@@H](CCCNC(=N)N)C(=O)N[C@@H](Cc1ccccc1)C(N)=O` [Peptide 212] (H-YNWNG[dW]GLRF-NH2), the “Inhibition … % Inhibition of Max” value is 68% and the IC50 is under 0.1 nM.
In the same order, the values of `CC(=O)N[C@@H](Cc1ccc(O)cc1)C(=O)N[C@@H](CC(N)=O)C(=O)N[C@@H](Cc1c[nH]c2ccccc12)C(=O)N[C@@H](CC(N)=O)C(=O)NCC(=O)N[C@@H](Cc1ccccc1)C(=O)NCC(=O)N[C@H](Cc1c[nH]c2ccccc12)C(=O)N[C@@H](CCCNC(=N)N)C(=O)N[C@@H](Cc1ccccc1)C(N)=O` [Peptide 228] (Ac-YNWNGFG[dW]RF-NH2) are 58% and 50 nM.
The matching figures for `CC(=O)N[C@@H](Cc1ccc(O)cc1)C(=O)N[C@@H](CC(N)=O)C(=O)N[C@@H](Cc1c[nH]c2ccccc12)C(=O)N[C@@H](CC(N)=O)C(=O)N[C@H](Cc1c[nH]c2ccccc12)C(=O)N[C@@H](Cc1ccccc1)C(=O)NCC(=O)N[C@H](Cc1c[nH]c2ccccc12)C(=O)N[C@@H](CCCNC(=N)N)C(=O)N[C@@H](Cc1ccccc1)C(N)=O` [Peptide 229] (Ac-YNWN[dW]FG[dW]RF-NH2): 68% and 8000 nM.
In the same order, the values of `CC(=O)N[C@@H](Cc1ccc(O)cc1)C(=O)N[C@@H](CC(N)=O)C(=O)N[C@H](Cc1c[nH]c2ccccc12)C(=O)N[C@@H](CC(N)=O)C(=O)NCC(=O)N[C@@H](Cc1ccccc1)C(=O)NCC(=O)N[C@H](Cc1c[nH]c2ccccc12)C(=O)N[C@@H](CCCNC(=N)N)C(=O)N[C@@H](Cc1ccccc1)C(N)=O` [Peptide 231] (Ac-YN[dW]NGFG[dW]RF-NH2) are 55% and 0.1 nM.
`CC(=O)N[C@H](Cc1ccc(O)cc1)C(=O)N[C@@H](CC(N)=O)C(=O)N[C@@H](Cc1c[nH]c2ccccc12)C(=O)N[C@@H](CC(N)=O)C(=O)NCC(=O)N[C@@H](Cc1ccccc1)C(=O)NCC(=O)N[C@@H](Cc1c[nH]c2ccccc12)C(=O)N[C@@H](CCCNC(=N)N)C(=O)N[C@@H](Cc1ccccc1)C(N)=O` [Peptide 237] (Ac-[dY]NWNGFGWRF-NH2): the “Inhibition … % Inhibition of Max” value is 0%.
Same read-out and setting: to `CC(=O)N[C@H](Cc1ccc(O)cc1)C(=O)N[C@@H](CC(N)=O)C(=O)N[C@@H](Cc1c[nH]c2ccccc12)C(=O)N[C@@H](CC(N)=O)C(=O)N[C@@H](CO)C(=O)N[C@@H](Cc1ccccc1)C(=O)NCC(=O)N[C@H](Cc1c[nH]c2ccccc12)C(=O)N[C@@H](CCCNC(=N)N)C(=O)N[C@@H](Cc1ccccc1)C(N)=O` [Peptide 238] (Ac-[dY]NWNSFG[dW]RF-NH2) belongs 0%; to `CC(=O)N[C@H](Cc1ccc(O)cc1)C(=O)N[C@H](CC(N)=O)C(=O)N[C@@H](Cc1c[nH]c2ccccc12)C(=O)N[C@@H](CC(N)=O)C(=O)N[C@@H](CO)C(=O)N[C@@H](Cc1ccccc1)C(=O)NCC(=O)N[C@@H](Cc1c[nH]c2ccccc12)C(=O)N[C@@H](CCCNC(=N)N)C(=O)N[C@@H](Cc1ccccc1)C(N)=O` [Peptide 239] (Ac-[dY][dN]WNSFGWRF-NH2), 0%.
With `CC(=O)N[C@H](Cc1c[nH]c2ccccc12)C(=O)N[C@@H](CC(N)=O)C(=O)N[C@@H](Cc1c[nH]c2ccccc12)C(=O)N[C@@H](CC(N)=O)C(=O)NCC(=O)N[C@@H](Cc1ccccc1)C(=O)NCC(=O)N[C@H](Cc1c[nH]c2ccccc12)C(=O)N[C@@H](CCCNC(=N)N)C(=O)N[C@@H](Cc1ccccc1)C(N)=O` [Peptide 243] (Ac-[dW]NWNGFG[dW]RF-NH2), the “Inhibition … % Inhibition of Max” value was 55% and the IC50 was found to be 10 nM.
